Results reported in ChEMBL document CHEMBL1201862, “PubChem BioAssay data set” (2004).
Active and inactive are the calls of the source.

Key:
[1] = biological target: Glycogen synthase kinase-3 alpha (Homo sapiens, UniProt P49840); assay: Inhibition of Human GSK-3 alpha Activity Measured in Biochemical System Using Microfluidics - 2063-06_Inhibitor_Dose_DryPowder_Activity. [Related pubchem assays (depositor defined):AID2709]
[2] = biological target: Glycogen synthase kinase-3 beta (Homo sapiens, UniProt P49841); assay: Inhibition of Human GSK-3 beta Activity Measured in Biochemical System Using Microfluidics - 2063-05_Inhibitor_Dose_DryPowder_Activity. [Related pubchem assays (depositor defined):AID2709]
[3] = biological target: DNA (cytosine-5)-methyltransferase 1 (Homo sapiens, UniProt P26358); assay: inhibition of DNA methylation by DNMT1 – biochemical, fluorescent molecular beacon, confirmation (AID 602386); assay type: functional
[4] = biological target: T1, Beta-adrenergic receptor kinase 1 (Homo sapiens, UniProt P25098); assay: aptamer displacement from bead-bound GRK2 – biochemical, cherry pick 1, bead flow cytometry, dose response (AID 504500)
[5] = biological target: T2, Carboxy-terminal domain RNA polymerase II polypeptide A small phosphatase 1 (Homo sapiens, UniProt Q9GZU7); assay: CTDSP1 inhibitors, concentration-response, biochemical, absorbance readout, ultra-high-throughput screen actives (AID 540297); assay type: functional
T2 sequence (Q9GZU7 whole entry): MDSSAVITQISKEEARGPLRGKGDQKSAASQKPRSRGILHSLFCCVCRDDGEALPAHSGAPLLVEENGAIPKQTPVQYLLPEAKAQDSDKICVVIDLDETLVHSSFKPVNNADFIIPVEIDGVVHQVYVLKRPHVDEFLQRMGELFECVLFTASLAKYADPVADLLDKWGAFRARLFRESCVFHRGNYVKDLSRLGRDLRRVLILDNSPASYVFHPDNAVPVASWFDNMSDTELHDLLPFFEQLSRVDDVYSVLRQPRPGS

[6] = biological target: T1, Beta-adrenergic receptor kinase 1; assay: blockers of aptamer binding to GRK2 – biochemical, flow cytometry beads, FAM-aptamer, powder set 1, dose response (AID 588720)
CHO = CHO cell viability loss, potency – luminescence, cytotoxicity control for TLR9-MyD88 binding inhibitor project, dose response (AID 588339); assay type: functional, cell-based, hamster; details: Cricetulus griseus;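 further: CHO cells stably coexpressing TLR9 and MyD88 fusions from primary screen; compound exposure lasted 48 hours before viability readout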
INS1 [7] = assay: beta-cell survival under cytokine stress – INS-1E, ATP luminescence, dry powder, dose response (AID 488844); assay type: functional, cell-based; details: Rattus norvegicus
INS1 [8] = assay: suppression of NO production in INS-1E cells – cell-based, Griess absorbance, dry powder, set 2, dose response (AID 488868); assay type: functional; details: Rattus norvegicus
[9] = suppression of NO production in INS-1E cells – cell-based, Griess absorbance, dry powder, set 3, dose response (AID 488870); assay type: functional; details: Rattus norvegicus
INS1 [10] = assay: INS-1E mitochondrial potential loss inhibitors – cell-based, JC-1 fluorescence, dry powder, set 2, dose response (AID 488867); assay type: functional; details: Rattus norvegicus
DNA topoisomerase = DNA topoisomerase (Yersinia pestis, UniProt A0A2S9PM60); assay: Yersinia topoisomerase I cleavage product accumulation – biochemical, cherry-pick, dose response (AID 588525)
[11] = biological target: T3, Sentrin-specific protease 8 (Homo sapiens, UniProt Q96LD8); assay: inhibition of human SENP8 cleavage activity – biochemical, luminescence, SAR follow-up (AID 504501); assay type: functional
T3 sequence (Q96LD8 whole entry): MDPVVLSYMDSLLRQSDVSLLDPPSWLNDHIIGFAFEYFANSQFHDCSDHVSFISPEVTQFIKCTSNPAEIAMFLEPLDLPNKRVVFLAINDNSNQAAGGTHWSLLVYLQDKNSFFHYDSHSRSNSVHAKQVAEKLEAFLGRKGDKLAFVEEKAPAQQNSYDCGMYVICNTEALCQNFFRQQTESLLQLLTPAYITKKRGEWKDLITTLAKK

[12] = biological target: T4, Sentrin-specific protease 6 (Homo sapiens, UniProt Q9GZR1); assay: SAR Analysis of small molecule inhibitors of Sentrin-specific protease 6 (SENP6) using a Luminescent assay. [Related pubchem assays (depositor defined):AID2582, AID2599]; assay type: functional
T4 sequence (Q9GZR1 whole entry): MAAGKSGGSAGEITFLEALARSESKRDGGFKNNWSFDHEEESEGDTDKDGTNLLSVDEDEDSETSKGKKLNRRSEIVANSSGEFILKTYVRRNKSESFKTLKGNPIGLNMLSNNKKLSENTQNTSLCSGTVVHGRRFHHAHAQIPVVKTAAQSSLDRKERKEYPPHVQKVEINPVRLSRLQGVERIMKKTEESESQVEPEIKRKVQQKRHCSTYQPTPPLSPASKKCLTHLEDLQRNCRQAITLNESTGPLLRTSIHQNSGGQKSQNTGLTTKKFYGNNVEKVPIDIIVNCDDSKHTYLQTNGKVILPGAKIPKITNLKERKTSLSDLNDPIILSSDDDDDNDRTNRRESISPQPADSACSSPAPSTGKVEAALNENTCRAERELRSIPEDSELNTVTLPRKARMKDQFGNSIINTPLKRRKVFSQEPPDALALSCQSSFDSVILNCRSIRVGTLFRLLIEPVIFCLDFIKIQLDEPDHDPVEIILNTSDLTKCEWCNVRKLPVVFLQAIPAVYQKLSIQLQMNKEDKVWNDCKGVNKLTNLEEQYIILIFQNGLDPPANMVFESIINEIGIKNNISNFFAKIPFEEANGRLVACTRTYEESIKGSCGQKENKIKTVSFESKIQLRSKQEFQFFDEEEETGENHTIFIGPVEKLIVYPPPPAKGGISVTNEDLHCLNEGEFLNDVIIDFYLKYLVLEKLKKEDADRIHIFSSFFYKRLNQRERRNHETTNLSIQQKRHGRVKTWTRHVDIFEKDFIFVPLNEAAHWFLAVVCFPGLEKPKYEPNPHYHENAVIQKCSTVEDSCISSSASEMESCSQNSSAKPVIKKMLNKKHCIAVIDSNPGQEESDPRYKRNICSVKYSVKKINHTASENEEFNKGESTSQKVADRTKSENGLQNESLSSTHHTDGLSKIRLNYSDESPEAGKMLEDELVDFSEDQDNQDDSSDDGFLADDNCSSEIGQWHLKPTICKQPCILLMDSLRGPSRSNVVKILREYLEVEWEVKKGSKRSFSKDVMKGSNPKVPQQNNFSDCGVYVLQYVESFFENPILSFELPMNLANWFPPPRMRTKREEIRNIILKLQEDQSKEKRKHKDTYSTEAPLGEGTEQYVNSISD

[13] = biological target: T5, Sentrin-specific protease 7 (Homo sapiens, UniProt Q9BQF6); assay: inhibition of human SENP7 cleavage activity – biochemical, luminescence, set 2, SAR follow-up (AID 588600); assay type: functional
T5 sequence (Q9BQF6 whole entry): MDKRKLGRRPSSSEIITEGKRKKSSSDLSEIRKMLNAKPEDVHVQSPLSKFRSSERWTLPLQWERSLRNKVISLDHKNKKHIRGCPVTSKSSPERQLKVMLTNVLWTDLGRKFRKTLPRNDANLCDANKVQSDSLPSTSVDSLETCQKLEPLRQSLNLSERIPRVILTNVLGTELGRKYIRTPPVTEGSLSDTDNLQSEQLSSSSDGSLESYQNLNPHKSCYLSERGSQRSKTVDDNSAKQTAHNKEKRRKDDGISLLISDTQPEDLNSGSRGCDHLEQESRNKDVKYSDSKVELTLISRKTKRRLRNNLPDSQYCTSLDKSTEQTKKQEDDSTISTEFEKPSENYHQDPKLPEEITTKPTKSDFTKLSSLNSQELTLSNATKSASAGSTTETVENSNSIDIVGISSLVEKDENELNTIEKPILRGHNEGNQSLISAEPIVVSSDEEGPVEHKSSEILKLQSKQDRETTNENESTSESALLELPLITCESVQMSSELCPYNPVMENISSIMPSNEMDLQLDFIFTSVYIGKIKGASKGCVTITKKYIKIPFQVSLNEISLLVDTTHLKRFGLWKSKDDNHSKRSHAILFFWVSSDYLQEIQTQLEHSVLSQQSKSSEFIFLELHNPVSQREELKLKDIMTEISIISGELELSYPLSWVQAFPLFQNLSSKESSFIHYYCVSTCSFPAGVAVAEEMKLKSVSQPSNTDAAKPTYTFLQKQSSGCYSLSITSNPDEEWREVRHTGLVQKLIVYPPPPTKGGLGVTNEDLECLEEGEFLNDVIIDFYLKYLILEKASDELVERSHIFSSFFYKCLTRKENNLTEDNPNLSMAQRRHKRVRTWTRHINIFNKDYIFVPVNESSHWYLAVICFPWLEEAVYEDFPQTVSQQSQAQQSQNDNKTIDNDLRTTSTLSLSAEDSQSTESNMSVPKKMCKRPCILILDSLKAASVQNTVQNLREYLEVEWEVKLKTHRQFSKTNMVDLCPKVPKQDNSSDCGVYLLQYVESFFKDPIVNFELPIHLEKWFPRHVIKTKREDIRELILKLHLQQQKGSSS

[14] = biological target: T3, Sentrin-specific protease 8; assay: inhibition of sentrin protease 8 – biochemical, luminescence, set 2, SAR follow-up (AID 588601); assay type: functional
[15] = biological target: T5, Sentrin-specific protease 7; assay: inhibition of human SENP7 cleavage activity – biochemical, luminescence, SAR follow-up (AID 504497); assay type: functional
Caspase-3 = biological target: T6, Caspase-3 (Homo sapiens, UniProt P42574); assay: SAR Analysis of small molecule inhibitors of Sentrin-specific proteases (SENPs) using a Caspase-3 Selectivity assay. [Related pubchem assays (depositor defined):AID2540, AID2599, AID434973, AID489001]; assay type: functional
T6 sequence (P42574 whole entry): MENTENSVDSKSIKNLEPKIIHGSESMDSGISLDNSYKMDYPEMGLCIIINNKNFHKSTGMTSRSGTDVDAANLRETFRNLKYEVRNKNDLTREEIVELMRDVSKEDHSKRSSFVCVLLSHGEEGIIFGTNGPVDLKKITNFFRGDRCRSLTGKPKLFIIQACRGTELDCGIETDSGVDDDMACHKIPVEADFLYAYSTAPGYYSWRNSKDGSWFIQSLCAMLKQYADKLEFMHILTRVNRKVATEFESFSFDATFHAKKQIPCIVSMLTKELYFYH

[16] = biological target: DNA dC->dU-editing enzyme APOBEC-3G (Homo sapiens, UniProt Q9HC16); assay: inhibition of APOBEC3G ssDNA deamination – biochemical, fluorescence, single-stranded DNA substrate, SAR follow-up (AID 602136); assay type: functional; details: read-out: IC50_Mean
[17] = biological target: DNA dC->dU-editing enzyme APOBEC-3A (Homo sapiens, UniProt P31941); assay: SAR analysis of small molecule inhibitors of APOBEC3A DNA Deaminase via a fluorescence-based single-stranded DNA deaminase assay.; assay type: functional; details: read-out: IC50_Mean
[18] = THP-1 cell cytotoxicity, cytotoxicity control, set 4 (AID 504911); assay type: functional; details: Mycobacterium tuberculosis
[19] = THP-1 cell cytotoxicity, dose response, cytotoxicity control, set 3 (AID 504852); assay type: functional; details: Mycobacterium tuberculosis
[20] = Vero cell cytotoxicity, dose response, cytotoxicity control for M. tuberculosis growth inhibitor project, Vero cells, purified and synthesized compounds, set 4 (AID 504854); assay type: functional; details: Mycobacterium tuberculosis
[21] = biological target: Voltage-gated inwardly rectifying potassium channel KCNH2 (Homo sapiens, UniProt Q12809); details: Potency;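 further: confirmatory quantitative high-throughput screen measuring inhibition of hERG channel activity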

T1 sequence (P25098 whole entry, the tested form may be a part): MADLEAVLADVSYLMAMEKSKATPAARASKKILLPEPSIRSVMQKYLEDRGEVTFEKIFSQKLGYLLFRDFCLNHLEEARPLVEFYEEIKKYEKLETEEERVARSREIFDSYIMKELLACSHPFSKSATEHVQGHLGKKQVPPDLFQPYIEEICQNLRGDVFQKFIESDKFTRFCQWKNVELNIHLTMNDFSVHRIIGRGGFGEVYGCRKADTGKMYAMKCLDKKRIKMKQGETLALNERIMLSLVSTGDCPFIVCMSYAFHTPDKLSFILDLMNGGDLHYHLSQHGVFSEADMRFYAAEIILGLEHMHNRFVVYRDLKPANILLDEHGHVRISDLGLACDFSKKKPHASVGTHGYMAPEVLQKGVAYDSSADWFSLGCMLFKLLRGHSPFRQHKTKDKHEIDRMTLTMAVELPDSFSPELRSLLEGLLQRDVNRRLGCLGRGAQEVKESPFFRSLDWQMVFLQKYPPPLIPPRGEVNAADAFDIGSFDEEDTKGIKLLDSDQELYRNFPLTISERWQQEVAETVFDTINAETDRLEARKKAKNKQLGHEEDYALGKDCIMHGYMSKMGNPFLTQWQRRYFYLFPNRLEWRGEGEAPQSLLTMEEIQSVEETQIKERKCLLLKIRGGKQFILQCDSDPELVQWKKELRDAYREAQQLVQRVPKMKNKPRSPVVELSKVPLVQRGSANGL
Chain of DNA (cytosine-5)-methyltransferase 1 (P26358 whole entry): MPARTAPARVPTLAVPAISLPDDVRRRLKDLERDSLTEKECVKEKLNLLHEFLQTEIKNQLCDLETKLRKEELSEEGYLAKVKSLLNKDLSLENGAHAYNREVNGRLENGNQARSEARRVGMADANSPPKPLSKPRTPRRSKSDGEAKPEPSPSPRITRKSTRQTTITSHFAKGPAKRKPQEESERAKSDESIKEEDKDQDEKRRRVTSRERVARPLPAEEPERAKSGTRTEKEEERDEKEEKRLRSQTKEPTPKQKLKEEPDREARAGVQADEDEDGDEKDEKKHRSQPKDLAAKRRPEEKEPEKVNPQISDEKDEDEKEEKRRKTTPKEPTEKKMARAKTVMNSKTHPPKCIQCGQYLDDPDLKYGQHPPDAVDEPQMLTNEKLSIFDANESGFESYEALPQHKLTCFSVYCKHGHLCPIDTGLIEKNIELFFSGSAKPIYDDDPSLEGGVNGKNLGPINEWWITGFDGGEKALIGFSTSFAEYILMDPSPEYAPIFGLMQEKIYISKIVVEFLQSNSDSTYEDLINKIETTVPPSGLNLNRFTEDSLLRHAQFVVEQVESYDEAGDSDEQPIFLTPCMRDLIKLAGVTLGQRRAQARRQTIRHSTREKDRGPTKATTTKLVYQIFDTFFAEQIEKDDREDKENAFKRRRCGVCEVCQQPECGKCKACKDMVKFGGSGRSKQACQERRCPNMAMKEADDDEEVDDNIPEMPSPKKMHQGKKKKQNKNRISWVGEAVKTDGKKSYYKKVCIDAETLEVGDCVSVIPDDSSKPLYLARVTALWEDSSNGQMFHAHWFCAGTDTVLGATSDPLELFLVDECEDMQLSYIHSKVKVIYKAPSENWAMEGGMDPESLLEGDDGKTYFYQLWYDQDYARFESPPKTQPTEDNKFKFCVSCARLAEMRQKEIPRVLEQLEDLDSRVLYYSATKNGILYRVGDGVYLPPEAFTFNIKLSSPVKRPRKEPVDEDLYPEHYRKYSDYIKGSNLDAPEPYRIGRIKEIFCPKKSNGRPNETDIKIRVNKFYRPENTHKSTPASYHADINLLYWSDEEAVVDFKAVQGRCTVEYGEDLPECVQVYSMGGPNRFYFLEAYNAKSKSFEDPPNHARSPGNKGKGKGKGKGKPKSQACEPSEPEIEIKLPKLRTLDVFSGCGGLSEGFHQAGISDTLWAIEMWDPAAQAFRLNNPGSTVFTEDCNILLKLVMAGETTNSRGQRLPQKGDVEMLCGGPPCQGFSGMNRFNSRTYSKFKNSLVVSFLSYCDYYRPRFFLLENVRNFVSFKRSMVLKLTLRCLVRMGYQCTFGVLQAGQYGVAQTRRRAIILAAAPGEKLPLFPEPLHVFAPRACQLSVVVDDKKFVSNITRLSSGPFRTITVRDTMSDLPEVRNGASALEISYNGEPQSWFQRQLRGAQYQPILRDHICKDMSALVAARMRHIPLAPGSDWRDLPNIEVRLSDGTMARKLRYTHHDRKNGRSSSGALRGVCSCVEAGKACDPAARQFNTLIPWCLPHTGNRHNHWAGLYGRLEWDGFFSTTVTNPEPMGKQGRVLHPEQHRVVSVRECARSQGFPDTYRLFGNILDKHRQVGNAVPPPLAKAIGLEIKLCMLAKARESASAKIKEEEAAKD
Chain of Glycogen synthase kinase-3 alpha (P49840 whole entry): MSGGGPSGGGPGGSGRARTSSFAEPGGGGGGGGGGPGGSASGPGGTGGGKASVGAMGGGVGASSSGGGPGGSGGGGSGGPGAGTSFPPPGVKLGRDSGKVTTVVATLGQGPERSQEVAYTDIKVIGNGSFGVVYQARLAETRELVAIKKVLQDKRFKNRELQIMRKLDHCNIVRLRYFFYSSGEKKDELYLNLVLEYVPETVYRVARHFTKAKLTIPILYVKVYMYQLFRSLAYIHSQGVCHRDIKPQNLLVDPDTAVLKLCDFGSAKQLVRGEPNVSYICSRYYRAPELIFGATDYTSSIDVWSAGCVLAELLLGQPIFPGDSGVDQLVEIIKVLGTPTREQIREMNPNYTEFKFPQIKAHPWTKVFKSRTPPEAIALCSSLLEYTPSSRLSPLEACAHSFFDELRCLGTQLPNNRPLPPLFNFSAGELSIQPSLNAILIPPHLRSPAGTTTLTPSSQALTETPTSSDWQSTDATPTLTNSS
Chain of Glycogen synthase kinase-3 beta (P49841 whole entry): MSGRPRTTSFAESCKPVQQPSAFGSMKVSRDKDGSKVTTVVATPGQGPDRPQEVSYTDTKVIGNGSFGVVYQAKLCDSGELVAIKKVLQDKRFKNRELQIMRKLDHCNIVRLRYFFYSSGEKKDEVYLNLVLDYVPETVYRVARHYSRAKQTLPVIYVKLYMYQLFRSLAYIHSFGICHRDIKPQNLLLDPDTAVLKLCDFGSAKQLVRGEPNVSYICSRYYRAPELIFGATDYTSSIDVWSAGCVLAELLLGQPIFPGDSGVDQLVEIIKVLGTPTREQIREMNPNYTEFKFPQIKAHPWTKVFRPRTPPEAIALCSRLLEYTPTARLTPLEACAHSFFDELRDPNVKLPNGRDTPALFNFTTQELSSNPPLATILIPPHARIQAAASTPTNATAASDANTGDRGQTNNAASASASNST
Chain of DNA dC->dU-editing enzyme APOBEC-3A (P31941 whole entry): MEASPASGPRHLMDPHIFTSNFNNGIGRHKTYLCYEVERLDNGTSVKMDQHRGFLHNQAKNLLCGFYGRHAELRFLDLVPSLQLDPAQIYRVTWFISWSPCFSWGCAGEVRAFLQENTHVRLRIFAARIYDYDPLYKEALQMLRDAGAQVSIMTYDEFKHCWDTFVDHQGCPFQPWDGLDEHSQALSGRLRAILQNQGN
Chain of DNA topoisomerase (A0A2S9PM60 whole entry): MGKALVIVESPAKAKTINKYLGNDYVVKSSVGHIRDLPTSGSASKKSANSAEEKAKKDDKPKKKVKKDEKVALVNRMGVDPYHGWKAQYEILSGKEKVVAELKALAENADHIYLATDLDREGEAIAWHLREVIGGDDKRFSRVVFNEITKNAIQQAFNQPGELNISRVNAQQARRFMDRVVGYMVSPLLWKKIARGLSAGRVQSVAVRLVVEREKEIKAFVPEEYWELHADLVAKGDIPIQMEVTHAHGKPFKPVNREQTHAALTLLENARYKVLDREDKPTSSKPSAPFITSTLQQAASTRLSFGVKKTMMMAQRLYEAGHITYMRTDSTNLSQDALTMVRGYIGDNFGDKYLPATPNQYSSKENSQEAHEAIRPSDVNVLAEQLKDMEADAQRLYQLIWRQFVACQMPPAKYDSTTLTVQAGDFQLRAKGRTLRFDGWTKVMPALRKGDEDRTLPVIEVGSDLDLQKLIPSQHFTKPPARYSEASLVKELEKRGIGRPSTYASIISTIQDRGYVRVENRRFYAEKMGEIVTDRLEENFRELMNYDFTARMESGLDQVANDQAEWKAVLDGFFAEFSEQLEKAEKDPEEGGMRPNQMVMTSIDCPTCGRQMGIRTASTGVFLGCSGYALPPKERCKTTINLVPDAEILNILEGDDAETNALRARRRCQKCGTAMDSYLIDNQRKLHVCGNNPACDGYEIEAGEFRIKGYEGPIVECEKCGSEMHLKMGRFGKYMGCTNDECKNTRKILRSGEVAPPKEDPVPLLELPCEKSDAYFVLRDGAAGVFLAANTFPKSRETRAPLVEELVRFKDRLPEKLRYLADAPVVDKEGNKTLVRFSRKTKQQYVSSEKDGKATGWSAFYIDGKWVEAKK
Chain of DNA dC->dU-editing enzyme APOBEC-3G (Q9HC16 whole entry): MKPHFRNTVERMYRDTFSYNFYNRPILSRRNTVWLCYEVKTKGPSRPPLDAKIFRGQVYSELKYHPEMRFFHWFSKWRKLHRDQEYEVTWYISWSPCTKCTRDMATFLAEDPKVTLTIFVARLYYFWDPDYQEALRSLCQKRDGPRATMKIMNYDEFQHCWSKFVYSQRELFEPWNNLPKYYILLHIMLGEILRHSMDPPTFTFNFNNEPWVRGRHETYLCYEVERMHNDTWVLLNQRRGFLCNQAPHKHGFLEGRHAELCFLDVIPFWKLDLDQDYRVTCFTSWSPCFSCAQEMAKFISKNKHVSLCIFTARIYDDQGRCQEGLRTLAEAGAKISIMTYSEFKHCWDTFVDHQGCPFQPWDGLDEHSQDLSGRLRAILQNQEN

## CCCn1nc(NC(=O)C(C)C)c2cc3cc(OC)ccc3nc21
[1]
  AC50: 38.5 µM (active)
[2]
  AC50: 3.25 µM (active)

## CCN(CC)c1ccc(NC(=O)CCS(=O)(=O)c2ccc(Br)cc2)c(C)c1
[3]
  IC50: 8.64 µM (active)
[4]
  EC50: 5.01 µM (active)
[5]
  IC50: 3.04 µM (active)
[6]
  EC50: 0.426 µM (active)

## Nc1ccc2nc(-c3ccccc3)cnc2c1
CHO
  IC50: > 49.7 µM (inactive)

## Cc1ccc(S(=O)(=O)N(C)C[C@@H]2Oc3c(NC(=O)Nc4cccc5ccccc45)cccc3C(=O)N([C@@H](C)CO)C[C@H]2C)cc1
INS1 [7]
  AC50: 31.7 µM (active)
INS1 [8]
  AC50: 69.6 µM (active)
[9]
  AC50: 32.7 µM (active)
INS1 [10]
  AC50: 48.3 µM (active)

## COc1cc2nc3n(c(=O)c2cc1OC)-c1cc2ccccc2cc1C(=O)NC3Cc1ccccc1 (centres undefined)
DNA topoisomerase
  AC50: 11.8 µM (active)

## Cc1cccc(-c2noc(/C=C/c3ccccc3)n2)c1
[11]
  IC50: > 99 µM (inactive)
[12]
  IC50: 17 µM (active)
[13]
  IC50: 4.14 µM (active)
[14]
  IC50: 3.48 µM (active)
[15]
  IC50: 4.9 µM (active)
Caspase-3
  IC50: 11 µM (active)

## CCCCN1CCc2cc(/C=C3\C(=O)NC(=S)N(C4CCCCC4)C3=O)ccc21
[16]
  IC50: > 99 µM (inactive)
[17]
  IC50: > 99 µM (inactive)

## O=C(CSc1nc2c(c(=O)[nH]1)CCCC2)NC1CCCCC1
[18]
  CC50: > 100 µM (active)
[19]
  CC50: > 100 µM (active)
[20]
  CC50: > 100 µM (active)

## Cn1cc(C(=O)OCC2CCN(CCNS(C)(=O)=O)CC2)c2ccccc21
[21]
  AC50: 35.5 µM (inconclusive)
